From publication PMC6222614, “Disubstituted 4-Chloro-3-nitrophenylthiourea Derivatives: Antimicrobial and Cytotoxic Studies” (Molecules : A Journal of Synthetic Chemistry and Natural …, 2018) come the findings set out here.

Read-outs that look alike come from different tables or passages of the source. Some results are limits rather than exact numbers.

Data set [1] has as its system DU145. Nature of the data set: Antiproliferative assay (MTT). The format is cell-based, human. To be noted: prostate carcinoma, concentration reducing cell proliferation by 50%, 96 h. As to the method: (§1) Cell lines derived from human solid tumors were: Skin melanoma (SK-MEL-28); prostate carcinoma (DU-145). Normal tissues foreskin fibroblasts (CRL-7065) were also used. Cells were seeded at 1 × 10^5 cells/mL in 96 well plates in specific media supplemented with 10% FCS and antibiotics, as above. Cell cultures were then incubated at 37 °C in a humidified, 5% CO2 atmosphere in the absence or presence of serial dilutions of test compounds. Cell viability was determined after 96 h at 37 °C by the MTT method.

For data set [2], the system named is SK-MEL-28. Nature of the data set: Antiproliferative assay (MTT). The format is cell-based, human. To be noted: skin melanoma, concentration reducing cell proliferation by 50%, 96 h. The method, then:
as §1

Data set [3] has as its system HaCaT cells. Nature of the data set: Lactate dehydrogenase (LDH) release assay in HaCaT cells. The format is cell-based. To be noted: 24 h. As to the method:
Cells were passaged using trypsin-EDTA (Gibco Life Technologies, Carlsbad, CA, USA) and cultured in 24-well plates (2.5 × 10^4 cells per well). Experiments were conducted in DMEM with 2% FBS.
Release of lactate dehydrogenase (LDH) from the cytosol to culture medium is a marker of cell death. The assay was performed after 24 h incubation of HaCaT cells in 24-well plates with investigated concentrations of each compound. The activity of LDH released from the cytosol of damaged cells to the supernatant was measured using the protocol of the cytotoxicity detection kit LDH test described by the manufacturer (Roche Diagnostics, Berlin, Germany). Absorbance was measured at 490 nm using a microplate reader (using Epoch microplate reader, BioTek Inc., Winooski, VT, USA) equipped with Gen5 software (BioTech Instruments, Inc., Biokom, Janki, Polska)
Compounds mediated cytotoxicity expressed as the LDH release (%) was determined by the following equation: [(A test sample—A low control)/(A high control—A low control)] × 100% (A-absorbance); where “low control” were cells in DMEM with 2% FBS without tested compounds, and “high control” were cells incubated in DMEM with 2% FBS with 10% Triton X-100 (100% LDH release).

For data set [4], the system named is WIL-2NS. Kind of data set: Antiproliferative assay (MTT). The format is cell-based, human. The conditions noted are these: concentration reducing cell proliferation by 50%, 96 h, mean of three determinations. As to the method: (§2) Cell lines derived from human hematological tumors were: CD4+ human T-cells containing an integrated HTLV-1 genome (MT-4); CD4+ human acute T-lymphoblastic leukemia (CCRF-CEM); human splenic B-lymphoblastoid cells (WIL-2NS); human acute B-lymphoblastic leukemia (CCRF-SB). Cells were seeded at an initial density of 1 × 10^5 cells/mL in 96 well plates in RPMI-1640 medium supplemented with 10% fetal calf serum (FCS), 100 units/mL penicillin G and 100 μg/mL streptomycin.
as §1

Data set [5] has as its system CCRF-SB. Kind of data set: Antiproliferative assay (MTT). The format is cell-based, human. The conditions noted are these: concentration reducing cell proliferation by 50%, 96 h, mean of three determinations. As to the method:
as §2, §1

Data set [6] relates to MT-4. Nature of the data set: Antiproliferative assay (MTT). The format is cell-based, human. The conditions noted are these: concentration reducing cell proliferation by 50%, 96 h, mean of three determinations. The method, then:
as §2, §1

In data set [7] the test system is CCRF-CEM. Nature of the data set: Antiproliferative assay (MTT). To be noted: concentration reducing cell proliferation by 50%, 96 h, mean of three determinations. The data set is classed as cell-based, human. As to the method:
as §2, §1

Data set [8] has as its system HaCaT cells. Kind of data set: Cell viability in HaCaT cells (MTT mitochondrial reduction). The data set is classed as cell-based, human. As to the method:
(§3) Human immortal keratinocyte cell line from adult human skin (HaCaT) was purchased from American Type Culture Collection (Rockville, MD, USA), and cultured in Dulbecco’s Modified Eagle’s Medium (DMEM), supplemented with antibiotics (penicillin and streptomycin), 10% heat-inactivated FBS-fetal bovine serum (Gibco Life Technologies, Carlsbad, CA, USA) at 37 °C and 5% CO2 atmosphere. Cells were passaged using trypsin-EDTA (Gibco Life Technologies, Carlsbad, CA, USA) and cultured in 24-well plates (2.5 × 10^4 cells per well). Experiments were conducted in DMEM with 2% FBS.
The cell viability assay was assessed by the determination of MTT salt (3-(4,5-dimethylthiazol-2-yl)-2,5-diphenyltetrazolium bromide, Sigma-Aldrich Chemie, Buchs, Germany) conversion by mitochondrial dehydrogenase. […] Absorbance of solubilized formazan was measured spectrophotometrically at 570 nm (using Epoch microplate reader, BioTek Inc., Winooski, VT, USA, equipped with Gen5 software (BioTech Instruments, Inc., Biokom, Janki, Polska).
Cell viability was presented as a percent of MTT in the treated cells versus the control (cells incubated in serum-free DMEM without extracts). The relative MTT level (%) was calculated as [A]/[B] × 100, where [A] is the absorbance of the test sample and [B] is the absorbance of the control sample containing the untreated cells. […]

Data set [9] concerns HaCaT cells. Kind of data set: Proliferation rate in cultures of HaCaT cells (trypan blue counting). The data set is classed as cell-based, human. To be noted: lowest concentrations (8 µM for 11 and 13, 37 µM for 25), 48 h. As to the method: as §3
After 48 h incubation with the lowest concentration of the tested compound the increased number of viable cells were assessed by direct counting of cells using trypan blue with a Countess Automated Cell Counter (Invitrogen, Carlsbad, CA, USA). The results are presented as a % of viable and dead cells versus control.

Data set [10] concerns MT-4 cells. Nature of the data set: Cytotoxicity against mock-infected MT-4 cells (MTT). The format is cell-based, human. To be noted: concentration reducing viability of mock-infected MT-4 cells by 50%, 96 h. The essentials:
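Uninfected MT-4 cells (HTLV-1-transformed human CD4+ T cells) seeded at 1 × 10^5 cells/mL in RPMI-1640 with 10% FBS and grown with serially diluted compounds at 37 °C, 5% CO2. Viability read by MTT after 96 h.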

Data set [11] concerns CRL7065. Nature of the data set: Antiproliferative assay (MTT), normal cell line. The conditions noted are these: normal foreskin fibroblasts, concentration reducing cell proliferation by 50%, 96 h. The format is cell-based, human. The method, then: as §1
Data set [12] relates to HIV-1 IIIB. Nature of the data set: Anti-HIV-1 activity: protection of MT-4 cells from virus-induced cytopathogenicity (MTT). To be noted: 50% protection of MT-4 cells from HIV-1 induced cytopathogenicity, MTT, 4-day incubation; read-out: HIV-1IIIB EC50. The format is cell-based, Human Immunodeficiency Virus type-1. The essentials: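 MT-4 cells (1 × 10^4/well) infected with HIV-1 IIIB at m.o.i. 0.01 (100 CCID50) in presence of serial compound dilutions. Protection from virus-induced cytopathogenicity measured by MTT viability after 4 days at 37 °C.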

Regarding `Cc1ccc(NC(=S)Nc2ccc(Cl)c([N+](=O)[O-])c2)cc1Cl` [Compound 13], the half-maximal cytotoxic concentration (CC50) (as a rule, the concentration at which the toxic effect on the cells reaches its halfway point) was 7 µM in data set [1]; 6 µM in [2]; 7.6 µM in data set [4]; 6.7 µM in data set [5]; 8 µM in data set [6]; 4 µM in data set [7]. Moreover, the CC50 in [10] came to 8 µM; in [11], 16 µM. Also, the “cell mortality (LDH release) increased to” value in data set [3] is given as 30%. For the same compound, the “release of LDH” value in data set [3] (concentrations 8 and 16 µM) is on record as ~10%. For the same compound, the “cytotoxicity (MTT)” value in [8] turned out to be 50%. Moreover, the “inhibition of viable cell proliferation” value in data set [9] was 30–40%. The EC50 – broadly, the concentration giving half of the maximal effect – in data set [12] is > 8 µM.
Take `O=[N+]([O-])c1cc(NC(=S)NCc2ccccc2)ccc1Cl` [Compound 25]: the “cytotoxicity as compared to the LD10 value” in data set [3] (all applied concentrations (37 µM and higher)) worked out at 7 fold. The “cytotoxicity (MTT)” value in [8] (HaCaT, 24 h, moderate according to ISO 10993-5) amounted to 50%. Further, the “inhibition of viable cell proliferation” value in data set [9] was 30–40%. The cytotoxic concentration (CC50) in [10] was found to be 36.7 µM. The EC50 in [12] was > 36.7 µM.
